How the values were obtained:
HOP62 = assay: Crystal violet viability assay, HOP62; type: cell-based, human; design: key: score 0- no effect-white; score 6- as or more effective than positive control- black; conditions: score 0-6 compared to positive control, 48 h
Excerpt: We also performed a similar analysis on ES2 ovarian cancer cells, which express endogenous mp53^S241F, compared to ES2 cells in which p53 was stably knocked out using CRISPR/Cas9 (ES2 p53KO Figure S1F), to control for specificity for mutp53 (Figure 2D). In ES2 cells, too, some of the peptides caused a significant reduction in cell numbers, more prominent in the mutp53 expressing cells than in their p53KO counterparts. […] Overall, we performed this analysis on several different mutp53-expressing human cancer cell lines, and the results are summarized in Table S3. Based on this comprehensive picture, we reduced the number of most promising candidate lead peptides to 30. These peptides were then synthesized with an 8 arginine C-terminal tail for enhanced delivery across cell membranes (pCAPs 130-160); for clarity, peptides are referred to by their original number, with an R for poly arginine (see Table S3).
Cells were cultured in 96 wells plates with 2500-4000 cells/well. Serial dilutions of different peptides were added and the plates incubated for additional 48 h at 37°C. Then medium was removed and cell viability was determined by staining the cells with crystal violet (0.05%) in methanol/PBS (1:5, v/v), for 10 min, followed by 3 washes with PBS. 10% acetic acid was added to each well for 10 min. OD was determined at 595 nm.

[1] = test system: mutp53 in SK3 cell extract; assay: ELISA of mutp53 conformation, SK3; type: biochemical, human; conditions: score 0-6 compared to positive control
Excerpt: A total of close to 350 peptides, deduced from the phage sequences, were synthesized and subjected to several alternative complementary methods of semi high-throughput functional screening; we refer to these peptides as pCAPs (p53 conformation activating peptides). First, we used cell-free ELISA assays to evaluate the effect of individual peptides on mutp53 conformation and DNA binding in vitro. For conformation analysis (Figure 2A), microtiter plates were coated with PAb240, PAb1620 or PAb421 as control, then the effect of each peptide on reactivity of mutp53 with these antibodies was examined; WTp53 served as a positive control for PAb1620 reactivity.
96-well plates were coated using 3 different anti p53 monoclonal antibodies, PAb421, PAb240 and PAb1620. Wells were incubated overnight (ON) with 100μl Ab (5μg/ml) in room temp (RT). The liquid was discarded, and the wells were washed 3 times with PBS, 200 μl. Next, blocking with 5% BSA in PBS for 2 hours (RT) was performed, followed by 3 washes in PBS. Samples of mutant and WT p53 proteins (100 μl, 10 μg/ml), together with control peptides or with test peptides 1-326 (5μg /ml), were incubated for 1.5 hours, and then added to the wells for1 hour at RT. 4 washes with PBST were performed. Next, HRP conjugated αp53 antibody (10μg/ml HAF1355 (R&D)) were added to the wells and incubated at RT for 1 hour. Plates were washed 3 times in PBST and TMB substrate solution (50μl each well, Thermo, (Cat. No. ES001-1L-K)) was added and incubated at 37°C for 20 min. The reaction was stopped with 2M Sulfuric acid (50μl). The absorbance was measured at 450 nm with a spectrophotometer. Protein concentration was determined by dividing the absorb an each sample to by the absorbance of PAb421 samples.

## EVTFRHSVV [pCAP-1, randomly selected peptide used as inert comparison]
HOP62
  Viability HOP62: 3

## HANLHHT [pCAP-87]
HOP62
  Viability HOP62: 3

## HHPWTHHQRWS [pCAP-20]
[1]
  Conform SK3: 4

## HSSHHHPVHSWN [pCAP-83]
[1]
  Conform SK3: 2

## IRGRIIRRRRRRRRR [pCAP-54R, pCAP-54 with poly arginine tail]
HOP62
  Viability HOP62: 2

## IRILMFLIGCGR [pCAP-23]
HOP62
  Viability HOP62: 3

## IRILMFLIGCGRRRRRRRRR [pCAP-23R, pCAP-23 with poly arginine tail]
HOP62
  Viability HOP62: 3

## LRCLLLLIGRVG [pCAP-24]
[1]
  Conform SK3: 2

## LRCLLLLIGRVGRRRRRRRR [pCAP-24R, pCAP-24 with poly arginine tail]
[1]
  Conform SK3: 2

## SFILFIRRGRLG [pCAP-60]
[1]
  Conform SK3: 2
HOP62
  Viability HOP62: 3

## SFILFIRRGRLGRRRRRRRRR [pCAP-60R, pCAP-60 with poly arginine tail]
[1]
  Conform SK3: 3
HOP62
  Viability HOP62: 2

## WNHHHSTPHPAH [pCAP-97]
[1]
  Conform SK3: 3
HOP62
  Viability HOP62: 4

## WNHHHSTPHPAHRRRRRR [pCAP-97R, pCAP-97 with poly arginine tail]
[1]
  Conform SK3: 3
HOP62
  Viability HOP62: 4

## YPTQGHLR [pCAP-36]
[1]
  Conform SK3: 3
HOP62
  Viability HOP62: 3

## YRRLLIGMMWRRRRRRRRR [pCAP-68]
[1]
  Conform SK3: 5
HOP62
  Viability HOP62: 5

## myr-PRVLPSPHTIHPSQYP [pCAP-229, myristoylated peptide, similarity to HIPK2]
[1]
  Conform SK3: 2
HOP62
  Viability HOP62: 4

## myr-RRIRDPRILLLHFD [pCAP-325]
[1]
  Conform SK3: 3
HOP62
  Viability HOP62: 4

## myr-RRKHNKHRPEPDSDER [pCAP-221]
[1]
  Conform SK3: 3
HOP62
  Viability HOP62: 5

## myr-RRKILFIRLMHNKH [pCAP-227, myristoylated peptide, similarity to GAS2]
[1]
  Conform SK3: 1
HOP62
  Viability HOP62: 6

## myr-RRLIVRILKLPNPPER [pCAP-242]
HOP62
  Viability HOP62: 5
